{
  "source": "patent US6756368B1",
  "about": "“Use of cobalt chelates for treating or preventing virus infection” (The Trustees of Columbia University in the City of New York, priority 1999, dated 2004)",
  "key": {"HSV-1 [1]": {"tested_on": "HSV-1", "assay": "HSV-1 DNA replication in the presence of drug (Southern/slot blot)", "type": "cell-based, HSV-1 Glasgow strain 17", "method": "(i) DNA preparation. Vero cells infected with MOI of 5 were infected and maintained in the presence and absence of 50 μg/ml CTC-96. Infected cells were harvested by freezing (−80° C.) at the indicated times postinfection. Total infected cell DNA was extracted as described (54).\n(ii) Slot blot analysis. Slot blot analysis was performed as previously described (55). Briefly, equal amounts of nuclear or cytoplasmic infected cell DNAs were blotted onto GeneScreen Plus using a MINIFOLD II Slot Blot System (Schleicher and Schuell, Keene, N.H.) and cross-linked with a Stratalinker 2400 (Stratagene, La Jolla, Calif.) using UV-irradiation. A 4.5 kB SalI-DdeI fragment from the α4 gene of HSV-1 which had been labeled with [α-32P]dCTP (NEN Life Sciences Products, Boston, Mass.) by random priming (Boehringer Mannheim, Indianapolis, Ind.) was hybridized to the nuclear and cytoplasmic DNAs and washed as specified by the manufacturer. Bands were visualized using autoradiography.\nA series of experiments were initiated to determine the point in the replication cycle where CTC-96 acts. Our first study examined the effects of drug on replication of virus DNA. Cells were infected at an moi of 5 in the presence of the absence of drug and harvested by trypsinization at 1 and 9 hr post infection. Virus DNA was extracted from cells by selective salt precipitation and the amount of virus-specific DNA was assayed after transfer to a nitrocellulose membrane by Southern blot hybridization using a phophorimager to quantitate signal.\nCells were infected and at various intervals drug was added and left on the infected cell cultures until 24 hr pi. At this time samples were harvested and DNA extracted and analyzed as described above. […] By 12 hr post infection the bulk of DNA replication is complete as there is only a small difference between the hybridization signal generated in an untreated 24 hr sample when compared with a sample treated at 12 hr and analyzed at 24 hr post infection (FIG. 13)."}, "HSV-1 [2]": {"tested_on": "HSV-1", "assay": "Accumulation of α4 and α27 mRNAs (RT-PCR)", "type": "cell-based, HSV-1 Glasgow strain 17", "method": "Vero cell monolayers were either mock infected or infected. The accumulation of α4 and α27 mRNAs from infected cells was determined as previously described [Lium and Silverstein 1997] by coupled reverse transcription (RT) and polymerase chain reaction (PCR) using the commercial kit, EZ rTth RNA PCR kit (Perkin-Elmer) as specified by the manufacturer with modifications. The primers used during RT were 4-2 and ICP27-L-RT [Lium and Silverstein 1997]. Following RT, secondary primers were added for PCR (4-1 and ICP27-U-RT) (55). These primers result in amplification of a 100 basepair (bp) fragment and a 220 bp fragment from the α4 and α27 genes, respectively.\nThe failure to detect virus specified polypeptides of any kinetic class in cells infected in the presence of CTC96 led us to ask if virus transcripts accumulated under these conditions. Accordingly, virus was incubated with 50 μg/ml of drug for 10 min and then either washed out by dilution and used to infect cells or used directly to infect cells. At 2 and 4 hr post infection cells were harvested and total infected cell RNA was prepared for analysis by RT-PCR for the presence of transcripts from the ∝4 and ∝27 genes. […] When these studies are carried out to as long as 8 hr pi there is still no detectable accumulation of virus-specified transcripts (data not shown). […] (FIG. 15)."}, "HSV-1 [3]": {"tested_on": "HSV-1", "type": "cell-based, HSV-1 Glasgow strain 17"}, "Ad-CMV-null": {"tested_on": "Ad-CMV-null", "assay": "Fluorescence focus assay, AdCMV-null on 293T cells", "type": "cell-based, adenovirus", "method": "A549 or 293 cell monolayers were infected with Ad2 or Ad-CMV-null at 0.1 fluorescence focus units (FFUs) per cell for 2 h in 2% BCS DMEM in the presence and absence of 50 μg/ml CTC-96. At 29 h postinfection the plates were washed twice with PBS and fixed with methanol for 4 min at room temperature. Cells were washed twice with PBS, incubated in 500 μl 1:100 rabbit polyclonal anti-adenovirus serum in PBS for 30 min at room temperature and washed with PBS. Plates were then incubated in 500 μl 1:40 goat anti-rabbit IgG conjugated FITC in PBS. Foci were visualized using a Leitz Dialux microscope with an optical system for the selective visualization of FITC and then counted.\n293T cells were plated on 35 mm dishes. Cells should be @5×10^6 cells/plate.\n293T Cells were infected with AdCMV-null @ moi=0.1 (i.e. 0.1 FFU/cell)\nvirus was diluted in D2 media +/− 50 μg/ml CTC96 D2=2% serum DMEM\nPlates were overlaid with 2.5 ml D2 +/− 50 μg/ml CTC96 and incub. @37° C. for 28 h (total)"}, "HSV-1 [4]": {"tested_on": "HSV-1", "details": "in vivo; cited from earlier work"}},
  "note": "Entries after “also recorded” stand apart in the source; their conditions may differ.",
  "data": [
    {"smiles": "CC(/C=C(/C)[O-])=NCCN=C(C)/C=C(/C)[O-].Cc1ncc[nH]1.Cc1ncc[nH]1.[Br-].[Co+3]", "note": "[CTC-96]", "values": [
      {"measurement": "virus DNA associated with infected cells at 1 hr post infection, versus no drug", "setting": "HSV-1 [1]; 50 μg/ml from onset, harvest 1 hpi", "result": "no detectable difference; also recorded: equivalent amount of virus DNA"},
      {"measurement": "virus DNA replication on temporal addition of drug", "setting": "HSV-1 [1]; drug added at various times post infection, harvest 24 hr pi", "result": "increasingly more virus DNA replication as drug is added at later times post infection; also recorded: the amount of virus DNA replication increased"},
      {"measurement": "increase in accumulation of virus DNA from 1 to 9 hr post infection", "setting": "HSV-1 [1]; drug treated, moi 5", "result": "barely a two-fold increase"},
      {"measurement": "time in which the action of the drug occurs", "setting": "HSV-1 [2]", "result": "less than 10 min"},
      {"measurement": "accumulation of α4 and α27 mRNAs", "setting": "HSV-1 [2]; 50 μg/ml present from onset of infection, 2 and 4 hr pi", "result": "neither the accumulation of α4 nor α27 mRNAs were detectable; also recorded: inhibits α4 and α27 gene expression"},
      {"measurement": "accumulation of α4 and α27 mRNAs", "setting": "HSV-1 [2]; 50 μg/ml present from onset of infection, 2 and 4 hr pi, listed as CTC96", "result": "no accumulation"},
      {"measurement": "accumulation of α4 and α27 mRNAs", "setting": "HSV-1 [2]; virus exposed to drug 10 min, drug then diluted/removed", "result": "began to accumulate"},
      {"measurement": "accumulation of α4 and α27 mRNAs", "setting": "HSV-1 [2]; virus exposed to drug 10 min, drug then diluted/removed, listed as CTC96", "result": "A small amount of immediate early gene RNA is detected"},
      {"measurement": "syncytia formation by a syncytia forming virus", "setting": "HSV-1 [3]; CTC-96 added at 1 or 10 hpi", "result": "unable to form syncytia"},
      {"measurement": "cell-to-cell spread (multi-celled foci)", "setting": "HSV-1 [3]; CTC-96 added at 8 hpi", "result": "unable to form multi-celled foci"},
      {"measurement": "adenovirus foci", "setting": "Ad-CMV-null; 50 μg/ml, 293T cells, AdCMV-null moi 0.1, 28 h", "result": "NO FOCI ON EITHER PLATE"},
      {"measurement": "% Inhibition", "setting": "Ad-CMV-null; Ad-CMV-null, 293T, 50 μg/ml of CTC-96, fluorescence focus assay", "result": 100, "unit": "%"},
      {"measurement": "effect on HSV-1 keratitis in the rabbit eye model", "setting": "HSV-1 [4]", "result": "reduce the corneal surface level of HSV-1 and facilitate the recovery from dendritic keratitis; also recorded: most potent inhibitory effect"}
    ]}
  ]
}
